Reference: US20240368135A1 (VERTEX PHARMACEUTICALS INCORPORATED, priority 2021, published 2024)
Where two headings read alike, the source gives them in different places.

Biological target: human NaV 1.8 (Homo sapiens, UniProt Q9Y5Y9)
Experiment: E-VIPR assay detecting and measuring NaV inhibition properties
Format: cell-based
Conditions: HEK cells expressing truncated human NaV 1.8
Method in brief: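 Membrane potential was followed by coumarin/oxonol FRET during electrical field stimulation of matrigel-seeded HEK cells carrying truncated human NaV1.8 plus KIR2.1. Dosing used 11 points, 3-fold steps, top 300 nM final, 0.625% DMSO, with or without 25% human serum.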

[1] = no human serum, read-out: IC50 in the E-VIPR Assay

human NaV 1.8, sequence (Q9Y5Y9 126-399 limits assumed): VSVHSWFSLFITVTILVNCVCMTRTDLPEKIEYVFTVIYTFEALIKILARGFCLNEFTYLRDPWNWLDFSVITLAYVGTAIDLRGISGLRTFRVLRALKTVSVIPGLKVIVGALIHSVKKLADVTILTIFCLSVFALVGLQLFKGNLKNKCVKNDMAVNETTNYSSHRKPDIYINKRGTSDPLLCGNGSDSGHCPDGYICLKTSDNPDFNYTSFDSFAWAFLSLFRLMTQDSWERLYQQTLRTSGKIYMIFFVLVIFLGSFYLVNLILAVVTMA
human NaV 1.8, sequence (Q9Y5Y9 660-890 limits assumed): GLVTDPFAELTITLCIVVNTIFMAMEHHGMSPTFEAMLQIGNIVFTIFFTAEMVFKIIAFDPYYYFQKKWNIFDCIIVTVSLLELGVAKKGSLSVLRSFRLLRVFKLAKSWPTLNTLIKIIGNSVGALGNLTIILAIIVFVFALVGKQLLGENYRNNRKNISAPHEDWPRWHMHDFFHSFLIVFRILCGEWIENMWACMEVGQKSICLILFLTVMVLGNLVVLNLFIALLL
human NaV 1.8, sequence (Q9Y5Y9 1148-1722 limits assumed): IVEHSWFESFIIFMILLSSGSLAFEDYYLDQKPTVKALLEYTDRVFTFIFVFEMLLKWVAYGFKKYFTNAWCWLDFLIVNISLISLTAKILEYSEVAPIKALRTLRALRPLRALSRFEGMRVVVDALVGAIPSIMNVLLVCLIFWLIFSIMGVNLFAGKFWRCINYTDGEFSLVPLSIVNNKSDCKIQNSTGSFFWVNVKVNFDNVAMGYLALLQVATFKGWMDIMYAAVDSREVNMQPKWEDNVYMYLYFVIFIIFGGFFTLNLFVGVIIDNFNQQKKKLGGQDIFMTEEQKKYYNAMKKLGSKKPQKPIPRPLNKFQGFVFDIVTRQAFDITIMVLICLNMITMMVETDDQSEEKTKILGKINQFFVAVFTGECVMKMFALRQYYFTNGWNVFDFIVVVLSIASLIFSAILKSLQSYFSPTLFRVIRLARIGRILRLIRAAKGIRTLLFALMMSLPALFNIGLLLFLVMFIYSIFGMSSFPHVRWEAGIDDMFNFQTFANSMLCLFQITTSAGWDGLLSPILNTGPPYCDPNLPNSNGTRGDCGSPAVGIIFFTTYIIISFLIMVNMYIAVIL

| SMILES | IC50 [1] [nM] | IC50 (in the presence of human serum (compound numbers followed by *), read-out: IC50 in the E-VIPR Assay, performed in the presence of human serum) [nM] |
| --- | --- | --- |
| C[C@H]1[C@@H](c2ccc(F)c(F)c2OC2CC(O)C2)[C@H](C(=O)Nc2cccnc2)O[C@@]1(C)C(F)(F)F (stereo partly drawn) [Compound 654, (2R,3S,4S,5R)-3-(3,4-difluoro-2-((1S,3R)-3-hydroxycyclobutoxy)phenyl)-4,5-dimethyl-N-(pyridin-3-yl)-5-(trifluoromethyl)tetrahydrofuran-2-carboxamide] | < 10 |  |
| C[C@H]1[C@@H](c2ccc(F)c(F)c2O[C@H]2C[C@@H](O)C2)[C@H](C(=O)Nc2ccc(C(N)=O)nc2)O[C@@]1(C)C(F)(F)F [Compound 655, 5-((2R,3S,4S,5R)-3-(3,4-difluoro-2-((1S,3R)-3-hydroxycyclobutoxy)phenyl)-4,5-dimethyl-5-(trifluoromethyl)tetrahydrofuran-2-carboxamido)picolinamide] | 10 to 100 |  |
| Cc1oncc1NC(=O)C1OC(C)(C(F)(F)F)C(C)C1c1ccc(F)c(F)c1OC1CC(O)C1 [Compound 656, (2R,3S,4S,5R)-3-(3,4-difluoro-2-((1S,3R)-3-hydroxycyclobutoxy)phenyl)-4,5-dimethyl-N-(5-methylisoxazol-4-yl)-5-(trifluoromethyl)tetrahydrofuran-2-carboxamide] | 10 to 100 |  |
| CC1C(c2ccc(F)c(F)c2OC2CC(O)C2)C(C(=O)Nc2cc(CO)ncc2F)OC1(C)C(F)(F)F [Compound 657, (2R,3S,4S,5R)-3-(3,4-difluoro-2-((1S,3R)-3-hydroxycyclobutoxy)phenyl)-N-(5-fluoro-2-(hydroxymethyl)pyridin-4-yl)-4,5-dimethyl-5-(trifluoromethyl)tetrahydrofuran-2-carboxamide] | ≥ 1000 |  |
| C[C@H]1[C@@H](c2ccc(F)c(F)c2O[C@H]2C[C@@H](O)C2)[C@H](C(=O)Nc2ccnnc2)O[C@@]1(C)C(F)(F)F [Compound 658, (2R,3S,4S,5R)-3-(3,4-difluoro-2-((1s,3R)-3-hydroxycyclobutoxy)phenyl)-4,5-dimethyl-N-(pyridazin-4-yl)-5-(trifluoromethyl)tetrahydrofuran-2-carboxamide] | 10 to 100 |  |
| C[C@H]1[C@@H](c2ccc(F)c(F)c2O[C@H]2C[C@@H](O)C2)[C@H](C(=O)Nc2cncc(C#N)c2)O[C@@]1(C)C(F)(F)F [Compound 659, (2R,3S,4S,5R)-N-(5-cyanopyridin-3-yl)-3-(3,4-difluoro-2-((1S,3R)-3-hydroxycyclobutoxy)phenyl)-4,5-dimethyl-5-(trifluoromethyl)tetrahydrofuran-2-carboxamide] | 10 to 100 |  |
| C[C@H]1[C@@H](c2ccc(F)c(F)c2O[C@H]2C[C@@H](O)C2)[C@H](C(=O)Nc2cncc(F)c2)O[C@@]1(C)C(F)(F)F [Compound 660, (2R,3S,4S,5R)-3-(3,4-difluoro-2-((1S,3R)-3-hydroxycyclobutoxy)phenyl)-N-(5-fluoropyridin-3-yl)-4,5-dimethyl-5-(trifluoromethyl)tetrahydrofuran-2-carboxamide] | 10 to 100 |  |
| Cc1ccc(NC(=O)C2OC(C)(C(F)(F)F)C(C)C2c2ccc(F)c(F)c2OC2CC(O)C2)cn1 [Compound 661, (2R,3S,4S,5R)-3-(3,4-difluoro-2-((1S,3R)-3-hydroxycyclobutoxy)phenyl)-4,5-dimethyl-N-(6-methylpyridin-3-yl)-5-(trifluoromethyl)tetrahydrofuran-2-carboxamide] | 10 to 100 |  |
| C[C@H]1[C@@H](c2ccc(F)c(F)c2O[C@H]2C[C@@H](O)C2)[C@H](C(=O)Nc2ccn(C)c(=O)c2)O[C@@]1(C)C(F)(F)F [Compound 663, (2R,3S,4S,5R)-3-(3,4-difluoro-2-((1S,3R)-3-hydroxycyclobutoxy)phenyl)-4,5-dimethyl-N-(1-methyl-2-oxo-1,2-dihydropyridin-4-yl)-5-(trifluoromethyl)tetrahydrofuran-2-carboxamide] | 10 to 100 |  |
| COCc1cc(NC(=O)C2OC(C)(C(F)(F)F)C(C)C2c2ccc(F)c(F)c2OC2CC(O)C2)ccn1 [Compound 664, (2R,3S,4S,5R)-3-(3,4-difluoro-2-((1S,3R)-3-hydroxycyclobutoxy)phenyl)-N-(2-(methoxymethyl)pyridin-4-yl)-4,5-dimethyl-5-(trifluoromethyl)tetrahydrofuran-2-carboxamide] | 10 to 100 |  |
| Cc1cncc(NC(=O)C2OC(C)(C(F)(F)F)C(C)C2c2ccc(F)c(F)c2OC2CC(O)C2)c1 [Compound 665, (2R,3S,4S,5R)-3-(3,4-difluoro-2-((1S,3R)-3-hydroxycyclobutoxy)phenyl)-4,5-dimethyl-N-(5-methylpyridin-3-yl)-5-(trifluoromethyl)tetrahydrofuran-2-carboxamide] | 10 to 100 |  |

Results, then the molecule that gave them:

| IC50 [1] [nM] | IC50 (in the presence of human serum (compound numbers followed by *), read-out: IC50 in the E-VIPR Assay, performed in the presence of human serum) [nM] | SMILES |
| --- | --- | --- |
| 10 to 100 |  | Cc1nn(C(F)F)cc1NC(=O)[C@@H]1O[C@@](C)(C(F)(F)F)[C@@H](C)[C@H]1c1ccc(F)c(F)c1CO [Compound 668, (2R,3S,4S,5R)-3-(3,4-difluoro-2-(hydroxymethyl)phenyl)-N-(1-(difluoromethyl)-3-methyl-1H-pyrazol-4-yl)-4,5-dimethyl-5-(trifluoromethyl)tetrahydrofuran-2-carboxamide] |
| 10 to 100 |  | Cc1nn(C(F)F)cc1NC(=O)[C@@H]1O[C@@](C)(C(F)(F)F)[C@@H](C)[C@H]1c1ccc(F)c(F)c1CN(C)C1CCOCC1 [Compound 669, (2R,3S,4S,5R)-3-(3,4-difluoro-2-((methyl(tetrahydro-2H-pyran-4-yl)amino)methyl)phenyl)-N-(1-(difluoromethyl)-3-methyl-1H-pyrazol-4-yl)-4,5-dimethyl-5-(trifluoromethyl)tetrahydrofuran-2-carboxamide] |
| 10 to 100 |  | Cc1nn(C(F)F)cc1NC(=O)[C@@H]1O[C@@](C)(C(F)(F)F)[C@@H](C)[C@H]1c1ccc(F)c(F)c1CN1CC2(COC2)C1 [Compound 670, (2R,3S,4S,5R)-3-(2-((2-oxa-6-azaspiro[3.3]heptan-6-yl)methyl)-3,4-difluorophenyl)-N-(1-(difluoromethyl)-3-methyl-1H-pyrazol-4-yl)-4,5-dimethyl-5-(trifluoromethyl)tetrahydrofuran-2-carboxamide] |
| 100 to 1000 |  | CNCc1c([C@H]2[C@H](C(=O)Nc3cn(C(F)F)nc3C)O[C@@](C)(C(F)(F)F)[C@H]2C)ccc(F)c1F [Compound 671, (2R,3S,4S,5R)-3-(3,4-difluoro-2-((methylamino)methyl)phenyl)-N-(1-(difluoromethyl)-3-methyl-1H-pyrazol-4-yl)-4,5-dimethyl-5-(trifluoromethyl)tetrahydrofuran-2-carboxamide] |
| 10 to 100 |  | Cc1nn(C(F)F)cc1NC(=O)[C@@H]1O[C@@](C)(C(F)(F)F)[C@@H](C)[C@H]1c1ccc(F)c(F)c1CN(C)C [Compound 672, (2R,3S,4S,5R)-N-(1-(difluoromethyl)-3-methyl-1H-pyrazol-4-yl)-3-(2-((dimethylamino)methyl)-3,4-difluorophenyl)-4,5-dimethyl-5-(trifluoromethyl)tetrahydrofuran-2-carboxamide] |
| 100 to 1000 |  | Cc1nn(C(F)F)cc1NC(=O)[C@@H]1O[C@@](C)(C(F)(F)F)[C@@H](C)[C@H]1c1ccc(F)c(F)c1CN1CCN(C)CC1 [Compound 674, (2R,3S,4S,5R)-3-(3,4-difluoro-2-((4-methylpiperazin-1-yl)methyl)phenyl)-N-(1-(difluoromethyl)-3-methyl-1H-pyrazol-4-yl)-4,5-dimethyl-5-(trifluoromethyl)tetrahydrofuran-2-carboxamide] |
| < 10 |  | C=Cc1c([C@H]2[C@H](C(=O)Nc3cn(C(F)F)nc3C)O[C@@](C)(C(F)(F)F)[C@H]2C)ccc(F)c1F [Compound 676, (2R,3S,4S,5R)-3-(3,4-difluoro-2-vinylphenyl)-N-(1-(difluoromethyl)-3-methyl-1H-pyrazol-4-yl)-4,5-dimethyl-5-(trifluoromethyl)tetrahydrofuran-2-carboxamide] |
| 10 to 100 |  | Cc1nn(C(F)F)cc1NC(=O)[C@@H]1O[C@@](C)(C(F)(F)F)[C@@H](C)[C@H]1c1ccc(F)c(F)c1CCO [Compound 677, (2R,3S,4S,5R)-3-(3,4-difluoro-2-(2-hydroxyethyl)phenyl)-N-(1-(difluoromethyl)-3-methyl-1H-pyrazol-4-yl)-4,5-dimethyl-5-(trifluoromethyl)tetrahydrofuran-2-carboxamide] |
| 100 to 1000 |  | Cc1nn(C(F)F)cc1NC(=O)[C@@H]1O[C@@](C)(C(F)(F)F)[C@@H](C)[C@H]1c1ccc(F)c(F)c1CCN(C)C [Compound 678, (2R,3S,4S,5R)—N-(1-(difluoromethyl)-3-methyl-1H-pyrazol-4-yl)-3-(2-(2-(dimethylamino)ethyl)-3,4-difluorophenyl)-4,5-dimethyl-5-(trifluoromethyl)tetrahydrofuran-2-carboxamide] |
| ≥ 1000 |  | Cc1nn(C(F)F)cc1NC(=O)[C@@H]1O[C@@](C)(C(F)(F)F)[C@@H](C)[C@H]1c1ccc(F)c(F)c1CCN1CC2(COC2)C1 [Compound 679, (2R,3S,4S,5R)-N-[1-(difluoromethyl)-3-methyl-pyrazol-4-yl]-3-[3,4-difluoro-2-[2-(2-oxa-6-azaspiro[3.3]heptan-6-yl)ethyl]phenyl]-4,5-dimethyl-5-(trifluoromethyl)tetrahydrofuran-2-carboxamide] |
| 10 to 100 |  | Cc1nn(C(F)F)cc1NC(=O)[C@@H]1O[C@@](C)(C(F)(F)F)[C@@H](C)[C@H]1c1ccc(F)c(F)c1CCc1cn[nH]c1 [Compound 681, (2R,3S,4S,5R)-3-(2-(2-(1H-pyrazol-4-yl)ethyl)-3,4-difluorophenyl)-N-(1-(difluoromethyl)-3-methyl-1H-pyrazol-4-yl)-4,5-dimethyl-5-(trifluoromethyl)tetrahydrofuran-2-carboxamide] |
| < 10 |  | COc1c([C@H]2[C@H](C(=O)Nc3ccc(C(N)=O)nc3)O[C@@](C)(C(F)(F)F)[C@H]2C)ccc(OC(F)F)c1F [Compound 682, 5-((2R,3S,4S,5R)-3-(4-(difluoromethoxy)-3-fluoro-2-methoxyphenyl)-4,5-dimethyl-5-(trifluoromethyl)tetrahydrofuran-2-carboxamido)picolinamide] |
|  | 100 to 1000 | CCOc1c(C2CC(C)(C(F)(F)F)OC2C(=O)Nc2ccn3c(OC)nnc3c2)ccc(F)c1F (stereo not drawn) [Compound 708] |
